We go through 28 compounds from patent publication US20260265195A1, “SARM1 MODULATORS, PREPARATIONS, AND USES THEREOF” (SIRONAX LTD, priority 2022, published 2026).

pIC50: −log10 of the molar value.

The target of this test is T1, SARM1 (50-724) (Homo sapiens, UniProt Q6SZW1).
T1 construct: Purified SARM1 (50-724) with a final concentration of 2 nM
T1 sequence (Q6SZW1 50-724): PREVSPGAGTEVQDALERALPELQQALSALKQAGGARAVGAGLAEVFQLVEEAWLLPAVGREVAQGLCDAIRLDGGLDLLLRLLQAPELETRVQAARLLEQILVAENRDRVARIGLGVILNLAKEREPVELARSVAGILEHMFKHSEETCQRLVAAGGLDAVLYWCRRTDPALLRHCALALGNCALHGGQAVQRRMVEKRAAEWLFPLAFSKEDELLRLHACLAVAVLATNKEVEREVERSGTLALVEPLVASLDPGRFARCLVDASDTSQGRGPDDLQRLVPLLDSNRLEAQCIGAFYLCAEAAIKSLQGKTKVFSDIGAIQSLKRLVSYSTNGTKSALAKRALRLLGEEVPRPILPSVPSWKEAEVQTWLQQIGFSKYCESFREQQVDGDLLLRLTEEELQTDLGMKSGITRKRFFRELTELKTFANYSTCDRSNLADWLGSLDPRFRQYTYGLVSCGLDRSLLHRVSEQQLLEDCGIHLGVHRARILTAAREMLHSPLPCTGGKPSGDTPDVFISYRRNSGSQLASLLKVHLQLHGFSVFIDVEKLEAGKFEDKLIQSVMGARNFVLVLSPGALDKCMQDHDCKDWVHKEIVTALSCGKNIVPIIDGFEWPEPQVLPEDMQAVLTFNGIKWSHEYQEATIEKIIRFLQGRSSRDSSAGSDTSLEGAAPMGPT
Description: SARM1 (50-724) enzymatic assay (NMN-activated NAD+ hydrolysis, LC-MS/MS readout). Format: biochemical. To be noted: purified SARM1 (50-724) 2 nM, 200 μM NMN activator, 100 μM NAD+ substrate, 1 h at room temperature, read-out: IC50 (SARM1 inhibitory activity). In a few lines: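 Purified human SARM1 (50-724), 2 nM final in DPBS, pre-incubated 15 min at RT with compound (1% DMSO), then started with 200 μM NMN activator and 100 μM NAD+. After 1 h at RT, quenched with 70% acetonitrile; analysed by LC-MS/MS.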
As usually defined, the pIC50 is the IC50 on a negative log10 scale, so that one unit is a factor of ten. As for `Cc1ccc2[nH]c(C(=O)N(C)c3ccc(C#N)cc3)c(CO)c2c1` [Compound 3, N-(4-cyanophenyl)-3-(hydroxymethyl)-N,5-dimethyl-1H-indole-2-carboxamide], the negative-log IC50 (pIC50) was at most 6.00.
The result for `Cc1c(-c2ccn[nH]2)ccc2[nH]c(C(=O)N(CC3COC3)c3cccc(Cl)c3Cl)nc12` [Compound 142] reads at most 6.00; that for `Cc1nc(C(=O)N(C)C2CCCC2)[nH]c1C` [Compound 59, N-cyclopentyl-N,4,5-trimethyl-1H-imidazole-2-carboxamide], at most 6.00.
The result for `Cc1ccc2[nH]c(C(=O)N(C)C3CCCC(C)C3C)c(CO)c2c1` (stereo not shown) [Compound 35, N-(2,3-dimethylcyclohexyl)-3-(hydroxymethyl)-N,5-dimethyl-1H-indole-2-carboxamide] reads at most 6.00; that for `O=C(c1nc2cc(C(F)(F)F)ccc2[nH]1)N(CCO)c1ccc(F)c(F)c1Cl` [Compound 203, N-(2-chloro-3,4-difluorophenyl)-N-(2-hydroxyethyl)-5-(trifluoromethyl)-1H-benzo[d]imidazole-2-carboxamide], at least 7.00.
The result for `Cc1ccc2[nH]c(C(=O)N(C)c3cccc(C#N)c3)c(CO)c2c1` [Compound 8, N-(3-cyanophenyl)-3-(hydroxymethyl)-N,5-dimethyl-1//-indole-2-carboxamide] reads at most 6.00.
As for `Cc1ccc2[nH]c(C(=O)N(C)C3CCCC3)nc2c1C#N` [Compound 97, 4-cyano-N-cyclopentyl-N,5-dimethyl-1H-benzo[d]imidazole-2-carboxamide], the pIC50 was 6.30 to 7.00.
The result for `Cc1ccc2[nH]c(C(=O)N(C)C3CCCC3)nc2c1C` [Compound 92, N-cyclopentyl-N,6,7-trimethyl-1H-benzo[d]imidazole-2-carboxamide] reads 6.30 to 7.00; that for `Cc1ccc2[nH]c(C(=O)N(C)C3CCCC3)c(CNc3ccccn3)c2c1` [Compound 82, N-cyclopentyl-N,5-dimethyl-3-((pyridin-2-ylamino)methyl)-1H-indole-2-carboxamide], 6.30 to 7.00.
In the case of `COC(=O)CN(C(=O)c1nc2cc(C(F)(F)F)ccc2[nH]1)c1cccc(Cl)c1Cl` [Compound 140, Methyl N-(2,3-dichlorophenyl)-N-(5-(trifluoromethyl)-1H-benzo[d]imidazole-2-carbonyl)glycinate] it was at least 7.00; in that of `CS(=N)(=O)CCCN(C(=O)c1nc2cc(C(F)(F)F)ccc2[nH]1)c1cccc(F)c1Cl` (stereo not shown) [Compound 224, N-(2-chloro-3-fluorophenyl)-N-(3-(S-methylsulfonimidoyl)propyl)-5-(trifluoromethyl)-1H-benzo[d]imidazole-2-carboxamide], at least 7.00.
In the case of `CC1(c2ccc3[nH]c(C(=O)N(CC(F)(F)CO)c4cccc(F)c4Cl)nc3c2)COC1` [Compound 223, N-(2-chloro-3-fluorophenyl)-N-(2,2-difluoro-3-hydroxypropyl)-5-(3-methyloxetan-3-yl)-1H-benzo[d]imidazole-2-carboxamide] it was at least 7.00; in that of `Cc1ccc2[nH]c(C(=O)N(CCO)c3cccc(Cl)c3Cl)nc2c1` [Compound 50, N-(2,3-dichlorophenyl)-N-(2-hydroxyethyl)-5-methyl-1H-benzo[d]imidazole-2-carboxamide], at most 6.00; in that of `Cc1ccc2[nH]c(C(=O)N(CCO)c3cccc(Cl)c3Cl)nc2c1Br` [Compound 160], at least 7.00.
Consider `Cc1ccc2[nH]c(C(=O)N(CCO)C3CCCC3)nc2c1` [Compound 49, N-cyclopentyl-N-(2-hydroxyethyl)-5-methyl-1H-benzo[d]imidazole-2-carboxamide], for which the pIC50 is 6.30 to 7.00.
In the case of `Cc1ccc2[nH]c(C(=O)N(C)c3ccc(C#N)cc3Cl)c(CO)c2c1` [Compound 9, N-(2-chloro-4-cyanophenyl)-3-(hydroxymethyl)-N,5-dimethyl-1H-indole-2-carboxamide] it was at most 6.00.
The result for `CN(C(=O)c1nc2c(C3CC3)cccc2[nH]1)C1CCCC1` [Compound 93, N-cyclopentyl-4-cyclopropyl-N-methyl-1H-benzo[d]imidazole-2-carboxamide] reads 6.00 to 6.30; that for `O=C(c1nc2cc(C(F)(F)F)ccc2[nH]1)N(CCOC1COC1)c1cccc(Cl)c1Cl` [Compound 178, N-(2,3-dichlorophenyl)-N-(2-(oxetan-3-yloxy)ethyl)-5-(trifluoromethyl)-1H-benzo[d]imidazole-2-carboxamide], at least 7.00.
The result for `Cc1c(F)cccc1N(CCO)C(=O)c1nc2cc(C(F)(F)F)ccc2[nH]1` [Compound 158, N-(3-fluoro-2-methylphenyl)-N-(2-hydroxyethyl)-5-(trifluoromethyl)-1H-benzo[d]imidazole-2-carboxamide] reads at least 7.00; that for `Cc1ccc2[nH]c(C(=O)N(C)C3CCCC3)c(COc3nccs3)c2c1` [Compound 75, N-cyclopentyl-N,5-dimethyl-3-((thiazol-2-yloxy)methyl)-1H-indole-2-carboxamide], 6.00 to 6.30.
As to `CN(C(=O)c1[nH]ncc1CO)C1CCCC1` [Compound 33, N-cyclopentyl-4-(hydroxymethyl)-N-methyl-1H-pyrazole-5-carboxamide], the pIC50 was at most 6.00.
For `Cc1cc(-c2ccc3[nH]c(C(=O)N(CC4COC4)c4cccc(Cl)c4Cl)nc3c2)[nH]n1` [Compound 122], the pIC50 was 6.30 to 7.00.
In the case of `Cn1nc(Cl)c(Cl)c1N(CCO)C(=O)c1nc2cc(C(F)(F)F)ccc2[nH]1` [Compound 126, N-(3,4-dichloro-1-methyl-1H-pyrazol-5-yl)-N-(2-hydroxyethyl)-5-(trifluoromethyl)-1H-benzo[d]imidazole-2-carboxamide] it was at most 6.00.
With `Cc1ccc2[nH]c(C(=O)N(C)c3ccccn3)c(CO)c2c1` [Compound 4, 3-(hydroxymethyl)-N,5-dimethyl-N-(pyridin-2-yl)-1H-indole-2-carboxamide], the pIC50 is at most 6.00.
The result for `Cc1c(Cl)cncc1N(CCO)C(=O)c1nc2cc(C(F)(F)F)ccc2[nH]1` [Compound 148, N-(5-chloro-4-methylpyridin-3-yl)-N-(2-hydroxyethyl)-5-(trifluoromethyl)-1H-benzo[d]imidazole-2-carboxamide] reads at least 7.00; that for `O=C(c1nc2cc(C(F)(F)F)ccc2[nH]1)N(CCN1CCC1)c1cccc(Cl)c1Cl` [Compound 149, N-(2-(azetidin-1-yl)ethyl)-N-(2,3-dichlorophenyl)-6-(trifluoromethyl)-1H-benzo[d]imidazole-2-carboxamide], 6.30 to 7.00.
In the case of `O=C(c1nc2cc(C(F)(F)F)ccc2[nH]1)N(CC1COC1)c1cccc(Cl)c1Cl` [Compound 105, N-(2,3-dichlorophenyl)-N-(oxetan-3-ylmethyl)-5-(trifluoromethyl)-1H-benzo[d]imidazole-2-carboxamide] it was at least 7.00.
The result for `Cc1ccc2[nH]c(C(=O)N(C)c3cccc(Cl)c3)c(CO)c2c1` [Compound 24, N-(3-chlorophenyl)-3-(hydroxymethyl)-N,5-dimethyl-1H-indole-2-carboxamide] reads at most 6.00.
